In US20230190870A1, “Method for Treating Lysosomal Storage Diseases with Histatin Peptides” (THE BOARD OF TRUSTEES OF THE UNIVERSITY OF ILLINOIS, priority 2020, published 2023):
Entries after “also recorded” stand apart in the source; their conditions may differ. Square brackets hold non-standard residues; d marks the D form. Peptide text beside a SMILES is read from it. pS = N[C@@H](COP(=O)(O)O)C(=O)O

Legend:
HCE cells = test: Wound healing in vitro scratch assay; type: cell-based, human
Experimental: (§1) Transfection/Knock-Down of TMEM97. Sub-confluent monolayers of HCE cells in grown in 35-mm six-well plates were transfected with reaction mixtures composed of 100 pmol of small interfering RNA (siRNA) to TMEM97 (Santa Cruz Biotechnology; Dallas, Tex.) for 48 hours and 5 μL of transfection reagent sold under the tradename LIPOFECTAMINE® 2000 (Invitrogen; Carlsbad, Calif.) in culture medium sold under the tradename OPTI-MEMO media (Gibco Life Technologies; Grand Island, N.Y.). Complexes were incubated for 20 minutes at 24° C. and then added to cells at 37° C. Incubation was continued for 24 to 48 hours at 37° C. in 5% CO2. Knock-down (KD) of TMEM97 was confirmed by western blot analysis using a rabbit anti-TMEM97 antibody (Novus Bio.; Littleton, Colo.).
Wound Healing in vitro Scratch Assay. HCE cells were cultured in a 96-well plate at 5×10^4 (cells/well) seeding density, and were grown to confluence. Subsequently, a straight line scratch mark was made with a multiscratch wound maker (IncuCyte® 96-well WoundMaker Tool, Essen Biosciences; Ann Arbor, Mich.). The cells were then washed twice with PBS to remove cellular debris. […] The wound areas were measured using ImageJ software (ImageJ 1.47v, NIH, Thornwood; Bethesda, Md.). Relative wound closure was calculated by dividing the closure of the treated wound by that of the untreated control wound. […]

[1] = tested on: human corneal epithelial (HCE) cells; test: Boyden chamber cell migration assay; type: cell-based
Experimental: as §1
Cell Migration Assay. HCE migration assays were performed in a 48-well micro-chemotaxis chamber (Neuro Probe, Inc.; Cabin John, Md.), following the manufacturer's instructions and following a modification of prior reports. Polyester membranes (Neuro Probe, Inc.; Gaithersburg, Md.) with 12 μm pores were used. Cells were incubated with Hst1 for 6 hours, harvested using Versene (Life Technologies, Corp.; Grand Island, N.Y.), resuspended in RPMI-1640 medium (Life Technologies, Corp.; Grand Island, N.Y.) containing 0.5% FBS. The bottom chamber was loaded with RPMI-1640 media containing 2% FBS, and the filter was laid over the media. […]

TMEM97 = TMEM97 (Homo sapiens, UniProt Q5BJF2); test: Co-immunoprecipitation / western blot in HCE cells; type: binding; parameters: endogenous in cells; host or cells: HCE cells; conditions: 20 μM Hst1 for 6 hours, IP TMEM97 antibody
TMEM97, sequence (Q5BJF2 whole entry): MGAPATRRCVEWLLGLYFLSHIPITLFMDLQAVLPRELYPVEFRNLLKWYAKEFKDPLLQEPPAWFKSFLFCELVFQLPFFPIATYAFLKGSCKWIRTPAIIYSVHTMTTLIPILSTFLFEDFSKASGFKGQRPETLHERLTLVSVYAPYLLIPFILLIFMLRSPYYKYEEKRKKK
Experimental: Immunoprecipitation/Western Blot Analysis. The day before, HCE cells were plated at the concentration of 5×10^6 cells/well in a 100 mm dish and were treated with 20 μM of Hst1 for 6 hours. Cells were harvested with lysis buffer (1% NP40, 137 mM sodium chloride, 20 mM Tris [pH 8.0], and 10% glycerol) and the lysates were incubated with 5 μL of a validated rabbit polyclonal anti-TMEM97 antibody (Novus Bio.; Littleton, Colo.) overnight at 4° C. The lysates were incubated with 30 μL of a suspension of protein A/G (Santa Cruz Biotechnology; Dallas, Tex.) for 2 hours at 4° C. with gentle shaking. After centrifugation for 5 minutes, pellets were washed three times and resuspended in 50 μL of 2×NUPAGE® LDS sample buffer (Invitrogen; Carlsbad, Calif.) and boiled for 10 minutes.
For detecting Hst1 bound to TMEM97 protein, the lysates were subjected to electrophoresis on 12% NUPAGE® Bis-Tris gels (Invitrogen; Carlsbad, Calif.), followed by transfer to nitrocellulose membranes (Amersham Protran, GE Healthcare; Pittsburgh, Pa.). Membranes were then blocked with Tris-buffered saline containing 3% nonfat dry milk for 1 hour and incubated with rabbit primary antibody against Hst1 (Mybiosource; San Diego, Calif.) (1:1000) overnight at 4° C. […]

[2] = target: T1, TMEM97 (S2R) containing HEK293T membranes (Homo sapiens, UniProt Q5BJF2); test: Radioligand binding/competition assay with [3H]-DTG (UNC PDSP); conditions: secondary radioligand binding assay; hot ligand [3H]-DTG
T1 construct: expressed in transfected cells; host or cells: HEK293T (transient overexpression; membranes prepared by UNC PDSP)

Structure (SMILES): CC(C)C[C@H](NC(=O)[C@H](Cc1ccc(O)cc1)NC(=O)[C@H](CC(N)=O)NC(=O)[C@H](CO)NC(=O)CNC(=O)[C@H](Cc1ccc(O)cc1)NC(=O)[C@H](CC(=O)O)NC(=O)CNC(=O)[C@H](Cc1ccc(O)cc1)NC(=O)[C@H](Cc1ccccc1)NC(=O)[C@@H]1CCCN1C(=O)[C@H](Cc1ccccc1)NC(=O)[C@H](CCC(=O)O)NC(=O)[C@H](CCCNC(=N)N)NC(=O)[C@H](Cc1c[nH]cn1)NC(=O)[C@H](CO)NC(=O)[C@H](Cc1c[nH]cn1)NC(=O)[C@H](Cc1c[nH]cn1)NC(=O)[C@H](CCCCN)NC(=O)[C@H](CCC(=O)O)NC(=O)[C@H](Cc1c[nH]cn1)NC(=O)[C@H](Cc1ccccc1)NC(=O)[C@H](CCCCN)NC(=O)[C@H](CCCNC(=N)N)NC(=O)[C@H](CCCNC(=N)N)NC(=O)[C@H](Cc1ccc(O)cc1)NC(=O)CNC(=O)[C@H](Cc1c[nH]cn1)NC(=O)[C@H](Cc1c[nH]cn1)NC(=O)[C@H](CCCNC(=N)N)NC(=O)[C@H](CCCCN)NC(=O)[C@H](CCC(=O)O)NC(=O)[C@H](Cc1c[nH]cn1)NC(=O)[C@H](COP(=O)(O)O)NC(=O)[C@@H](N)CC(=O)O)C(=O)N[C@@H](Cc1ccc(O)cc1)C(=O)N[C@@H](CC(=O)O)C(=O)N[C@@H](CC(N)=O)C(=O)O [Hst1] (H-D[pS]HEKRHHGYRRKFHEKHHSHREFPFYGDYGSNYLYDN-OH; N-terminus and C-terminus assumed)
- scratch closure / wound healing rate (HCE cells; 20 or 50 μM, 8 and 16 hours, versus untreated control): increases in wound healing rates; also recorded: statistically significant improvement in scratch closure rates
- wound closure response in TMEM97 KD cells (HCE cells; siRNA knock-down of TMEM97): abolished this responsiveness; also recorded: loss of this response
- transmigration response in TMEM97 KD cells ([1]; siRNA knock-down of TMEM97): inhibits; also recorded: abolished this response
- cellular transmigration ([1]; toward 2% FBS stimulus): dose-dependent increase in cellular transmigration
- co-precipitation with TMEM97 (TMEM97): co-precipitated with TMEM97
- Ki [2]: 239 nM
